This note sets out measurements from ChEMBL document CHEMBL1201862, “PubChem BioAssay data set” (2004).

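Compound exposure: 48 hours, 5 concentrations, 96-well plates. Abbreviation: GI50, concentration required for 50% inhibition of growth.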 Activity calls are given as the source filed them. Rule as the data show it: active = GI50 up to about 1.1 µM and inactive = higher.

Some test systems named below: UACC-257; HCC 2998; SF-539; Malme-3M; RPMI-8226; MOLT-4; IGROV-1; SNB-19; COLO 205; SK-MEL-2; 786-0; HCT-15; HT-29; A549; SK-MEL-28; NCI-H226; SF-268; SF-295; A498.
Assay in all cases: inhibition of tumour cell growth, NCI panel, 48 h

As for `[O-][S+]1c2ccccc2N=C(c2ccc3ccccc3c2)CC1C1=CC=CCC1` (stereo not drawn), the GI50 with UACC-257 is 18.3 µM (inactive); in the experiment on HCC 2998 it was 13.1 µM (inactive); in the experiment with SF-539 it was 21.9 µM (inactive); in the experiment with Malme-3M, 27.4 µM (inactive); in the experiment with RPMI-8226, 8.75 µM (inactive); in the experiment on MOLT-4, 13.7 µM (inactive). In addition, the GI50 was 13.2 µM (inactive) in the experiment on IGROV-1; > 10 µM (inactive) in the experiment on SNB-19; 20.5 µM (inactive) in the experiment on COLO 205; 19.1 µM (inactive) in the experiment on SK-MEL-2; 16 µM (inactive) in the experiment on 786-0; 16.7 µM in the experiment with HCT-15. For the same compound, the GI50 with HT-29 was 16.5 µM (inactive); in the experiment with A549, 26.3 µM (inactive); in the experiment on SK-MEL-28 it was 18.2 µM (inactive); with NCI-H226 it was 19.4 µM (inactive); with SF-268, 25.8 µM (inactive); in the experiment with SF-295, 17.7 µM (inactive).

As to `CC(C)(C)N/N=C(\C(=O)Nc1cccc(Cl)c1)C1C(=O)Nc2ccccc2[S+]1[O-]` (stereo not drawn), the GI50 in the experiment with UACC-257 is > 100 µM (inactive); with HCC 2998, > 100 µM (inactive); with SF-539, > 100 µM (inactive); with Malme-3M it was 21.6 µM (inactive); with MOLT-4 it was > 100 µM (inactive); in the experiment on IGROV-1 it was > 100 µM (inactive). For the same compound, the GI50 in the experiment on SNB-19 was > 100 µM (inactive); in the experiment with COLO 205, > 100 µM (inactive); in the experiment on SK-MEL-2 it was > 100 µM (inactive); in the experiment on 786-0 it was > 100 µM (inactive); in the experiment with HCT-15 it was greater than 100 µM; in the experiment on HT-29, > 100 µM (inactive). Also, the GI50 in the experiment with A549, with SK-MEL-28, in the experiment with NCI-H226, in the experiment with SF-268 and in the experiment on SF-295 was > 100 µM (inactive) in each case.

As for `O=C(/C=C/c1ccccc1)Oc1cccc2cccnc12`, the GI50 with UACC-257 was 2.88 µM (inactive); with HCC 2998, 43.2 µM (inactive); in the experiment with SF-539, 3.93 µM (inactive); in the experiment on Malme-3M, 3.8 µM (inactive); in the experiment with RPMI-8226, 4.38 µM (inactive); with MOLT-4 it was 3.2 µM (inactive). The GI50 with IGROV-1 was 11.2 µM (inactive); in the experiment with SNB-19, 31.4 µM (inactive); in the experiment with COLO 205, 14.5 µM (inactive); in the experiment with 786-0 it was > 44.4 µM (inactive); with HCT-15, 6.17 µM; with HT-29, 7.93 µM (inactive). The GI50 in the experiment with A549 was 12.9 µM (inactive); in the experiment on SK-MEL-28 it was 16.4 µM (inactive); with NCI-H226 it was 26.7 µM (inactive); in the experiment with SF-268, 2.23 µM (inactive); in the experiment on SF-295, 8.28 µM (inactive).

As for `C=C(C)CC(C)(c1cc2ccccc2n1C)N1CCOCC1` (stereo not drawn), the GI50 with UACC-257 is 95.1 µM (inactive); in the experiment on HCC 2998 it was > 100 µM (inactive); in the experiment with SF-539 it was > 100 µM (inactive); in the experiment on Malme-3M, > 100 µM (inactive); with MOLT-4, 40.3 µM (inactive); in the experiment on IGROV-1, 75.7 µM (inactive). Further, the GI50 with SNB-19 is > 100 µM (inactive); in the experiment with COLO 205, > 100 µM (inactive); with SK-MEL-2, > 100 µM (inactive); in the experiment on 786-0, > 100 µM (inactive); with HCT-15, 75.7 µM; with HT-29, > 100 µM (inactive). The GI50 in the experiment with A549 was 59.2 µM (inactive); in the experiment on SK-MEL-28, > 100 µM (inactive); in the experiment on NCI-H226, 69.8 µM (inactive); in the experiment with SF-268 it was 41.5 µM (inactive); in the experiment on SF-295 it was > 100 µM (inactive).

Consider `COc1ccc2ccc3c(c2c1)CN1CCc2cc(OC)c(OC)cc2C1C3` (stereo not drawn), for which the GI50 in the experiment with UACC-257, in the experiment on HCC 2998, in the experiment on SF-539, in the experiment with Malme-3M, in the experiment on RPMI-8226 and with MOLT-4 was > 100 µM (inactive) each time. Also, the GI50 is > 100 µM (inactive) in the experiment with IGROV-1; > 100 µM (inactive) in the experiment on SNB-19; > 100 µM (inactive) in the experiment on COLO 205; > 100 µM (inactive) with SK-MEL-2; > 100 µM (inactive) with 786-0; greater than 100 µM in the experiment on HCT-15. For the same compound, the GI50 in the experiment on HT-29, with SK-MEL-28, in the experiment on NCI-H226 and in the experiment on SF-295 was > 100 µM (inactive) throughout.

For `CC(C)(C)c1cc(C(O)(C(F)(F)F)C(F)(F)F)c2c(c1)C(C(F)(F)F)(C(F)(F)F)OC(C)(C(C)(C)C)N2` (stereo not drawn), the GI50 was 5.19 µM (inactive) in the experiment with UACC-257; 6.56 µM (inactive) with HCC 2998; 3.55 µM (inactive) with SF-539; 6.65 µM (inactive) in the experiment on Malme-3M; 2.57 µM (inactive) in the experiment with RPMI-8226; 2.54 µM (inactive) in the experiment on MOLT-4. Further, the GI50 is 4.78 µM (inactive) with IGROV-1; 5.41 µM (inactive) with SNB-19; 2.05 µM (inactive) in the experiment with COLO 205; 4.72 µM (inactive) in the experiment with SK-MEL-2; 3.34 µM (inactive) in the experiment with 786-0; 3.83 µM in the experiment with HCT-15. Further, the GI50 with HT-29 was 3.4 µM (inactive); in the experiment on A549, 3.59 µM (inactive); in the experiment on SK-MEL-28 it was 8.28 µM (inactive); in the experiment on NCI-H226 it was 2.27 µM (inactive); in the experiment with SF-295, 4.73 µM (inactive).

With `O=C1CN(c2cccc(Cl)c2)C(=O)CN1NCNN1CC(=O)N(c2cccc(Cl)c2)CC1=O`, the GI50 in the experiment with UACC-257, in the experiment with HCC 2998, with SF-539, with Malme-3M, with RPMI-8226 and in the experiment on MOLT-4 was > 100 µM (inactive) in each case. The GI50 was > 100 µM (inactive) in the experiment on IGROV-1; > 100 µM (inactive) in the experiment with SNB-19; > 100 µM (inactive) in the experiment on COLO 205; > 100 µM (inactive) with 786-0; greater than 100 µM in the experiment on HCT-15; > 100 µM (inactive) with HT-29. Besides, the GI50 with A549, in the experiment with SK-MEL-28, with SF-268, in the experiment on A498 and in the experiment on SF-295 was > 100 µM (inactive) in each case.

`C#C[C@]1(O)CCC2C3CCc4cc(Oc5nc(F)nc(-n6c(C)nc7cc8ccccc8cc76)n5)ccc4C3CCC21C` (stereo partly drawn): the GI50 with UACC-257 is 86.5 µM (inactive); in the experiment on HCC 2998, 53.5 µM (inactive); in the experiment with SF-539, 31.6 µM (inactive); in the experiment on Malme-3M, 47.3 µM (inactive); in the experiment with RPMI-8226, 38.2 µM (inactive); with MOLT-4, 27.4 µM (inactive). Also, the GI50 with IGROV-1 was 54.3 µM (inactive); in the experiment on SNB-19 it was 53.1 µM (inactive); with COLO 205, 20.6 µM (inactive); in the experiment with SK-MEL-2, 45.3 µM (inactive); with 786-0, 57 µM (inactive); with HT-29, 31 µM (inactive). Moreover, the GI50 in the experiment on A549 was 41.5 µM (inactive); in the experiment with SK-MEL-28, > 10 µM (inactive); with NCI-H226, 47.8 µM (inactive); with SF-268, 47.6 µM (inactive); in the experiment on SF-295, 33.8 µM (inactive).

Take `CC12CO[C@@](C)(CC(S(=O)(=O)c3ccccc3)C1)O2` (stereo partly drawn): the GI50 in the experiment on UACC-257, in the experiment with HCC 2998, in the experiment on SF-539, with Malme-3M, in the experiment on RPMI-8226 and in the experiment on MOLT-4 was > 100 µM (inactive) throughout. Further, the GI50 with IGROV-1 is > 100 µM (inactive); with SNB-19, > 100 µM (inactive); in the experiment with COLO 205, > 100 µM (inactive); with SK-MEL-2 it was > 100 µM (inactive); in the experiment on 786-0, > 100 µM (inactive); in the experiment with HCT-15 it was greater than 100 µM. In addition, the GI50 with HT-29, in the experiment with A549, in the experiment with SK-MEL-28, in the experiment on SF-268 and in the experiment with SF-295 was > 100 µM (inactive) throughout.

Take `Cc1cc(C)c(-c2noc(-c3ccc(Cl)cc3)c2C2=NCCCN2)c(C)c1`: the GI50 in the experiment on UACC-257 was 15.1 µM (inactive); in the experiment with HCC 2998, 15.1 µM (inactive); in the experiment with SF-539, 14.1 µM (inactive); with Malme-3M, 19.4 µM (inactive); with RPMI-8226, 16.2 µM (inactive); in the experiment with MOLT-4, 16.8 µM (inactive). Besides, the GI50 was 32.1 µM (inactive) in the experiment on IGROV-1; 21.3 µM (inactive) with SNB-19; 13.8 µM (inactive) with COLO 205; 20.9 µM (inactive) with SK-MEL-2; 7.45 µM (inactive) in the experiment on 786-0; 18.5 µM in the experiment with HCT-15. Further, the GI50 in the experiment on HT-29 is 13.5 µM (inactive); in the experiment with A549, 24 µM (inactive); in the experiment with SK-MEL-28, 14.8 µM (inactive); in the experiment with NCI-H226, 29.9 µM (inactive); with SF-268, 11.3 µM (inactive); in the experiment on SF-295 it was 11.2 µM (inactive).

As for `CCOC(=O)C(=O)Nc1ccc(Cl)cc1C`, the GI50 with UACC-257, in the experiment on HCC 2998, in the experiment on SF-539, in the experiment on Malme-3M, with RPMI-8226 and in the experiment on MOLT-4 was > 100 µM (inactive) throughout. The GI50 in the experiment on IGROV-1 was > 100 µM (inactive); in the experiment on SNB-19 it was > 100 µM (inactive); with COLO 205, > 100 µM (inactive); in the experiment on SK-MEL-2 it was > 100 µM (inactive); in the experiment with 786-0, > 100 µM (inactive); in the experiment with HCT-15 it was greater than 100 µM. Moreover, the GI50 with HT-29, with A549, with SK-MEL-28, in the experiment on NCI-H226, in the experiment with SF-268 and in the experiment on SF-295 was > 100 µM (inactive) each time.

On to `O=C1CCCCCCC2=C1C(Sc1ccccc1)CC2` (stereo not drawn), for which the GI50 in the experiment with UACC-257 was 43.2 µM (inactive); with Malme-3M, > 100 µM (inactive); in the experiment on RPMI-8226, 30.3 µM (inactive); with MOLT-4, 18.1 µM (inactive); in the experiment with SNB-19 it was 40.3 µM (inactive); in the experiment on COLO 205, 62.8 µM (inactive). Moreover, the GI50 in the experiment with 786-0 was 17.7 µM (inactive); with HCT-15, 31.7 µM; with HT-29 it was 34 µM (inactive); in the experiment with A549, 45.5 µM (inactive); in the experiment with SK-MEL-28, 32.4 µM (inactive); with NCI-H226, 29.5 µM (inactive). Also, the GI50 is 19.9 µM (inactive) with SF-268 and 45 µM (inactive) with SF-295.
